The values below come from US20100203175A1, “DEGLYCATION OF AGEs” (BASF BEAUTY CARE SOLUTIONS FRANCE S.A.S., priority 2007, published 2010).

The target in this test is AGEs (bovine serum albumin (BSA) incubated with a reducing sugar) (Bos taurus, UniProt P02769). The test can be described thus: Reversion of the Maillard reaction: deglycation of AGEs prepared from bovine serum albumin and glucose, fluorescence read-out. Format: biochemical. Conditions: characterized molecules, in particular at 1×10^−1% in water or DMSO; about 50° C., 3 weeks; fluorescence with active principle versus positive control (15 mM aminoguanidine). As for the experimental part: The preparation of a solution containing a protein and a reducing sugar was carried out extemporaneously as follows: a solution of bovine serum albumin (BSA) at a concentration between 1.5 μM and 1.5M, preferably between 15 μM and 500 μM was incubated with a solution of a reducing sugar such as glucose, fructose, etc., preferably with glucose at a concentration between 0.1M and 10M and preferably between 0.5M and 5M.
Chain of AGEs (bovine serum albumin (BSA) incubated with a reducing sugar) (P02769 25-607): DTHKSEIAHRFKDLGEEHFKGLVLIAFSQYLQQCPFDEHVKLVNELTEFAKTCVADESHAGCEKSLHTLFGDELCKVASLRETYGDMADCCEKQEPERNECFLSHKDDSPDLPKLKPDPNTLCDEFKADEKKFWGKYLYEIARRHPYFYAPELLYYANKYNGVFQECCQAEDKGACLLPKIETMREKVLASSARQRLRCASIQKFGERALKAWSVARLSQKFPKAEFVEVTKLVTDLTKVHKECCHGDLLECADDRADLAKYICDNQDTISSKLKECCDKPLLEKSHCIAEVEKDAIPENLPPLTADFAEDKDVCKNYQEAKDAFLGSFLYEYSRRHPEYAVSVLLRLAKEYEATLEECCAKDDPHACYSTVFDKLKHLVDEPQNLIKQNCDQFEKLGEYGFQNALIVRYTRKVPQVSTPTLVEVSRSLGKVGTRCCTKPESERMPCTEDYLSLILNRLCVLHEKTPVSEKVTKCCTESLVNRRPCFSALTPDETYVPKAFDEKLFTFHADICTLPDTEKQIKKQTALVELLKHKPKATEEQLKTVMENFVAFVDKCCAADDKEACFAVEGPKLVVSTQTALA
The incubation was maintained between 1 and 5 weeks, and preferably for 3 weeks.
The measure of inhibition of the AGEs was carried out by measuring the fluorescence (excitation wavelength between 350 and 375 nm, preferably at 355 nm; emission wavelength between 420 and 450 nm, preferably at 430 nm). The reversion of the Maillard reaction was calculated by comparing the fluorescence of AGEs set at 100% (maximum fluorescence) with the fluorescence of AGEs+active agent tested.
The preparation of a protein/reducing sugar solution was carried out according to the method described in Example 1 (paragraph 1).
The preparation of a solution of protein/reducing sugar was carried out according to the method described in Example 1 (paragraph 1). […]
For `Oc1cc(O)c2c(c1)O[C@@H](c1ccc(O)c(O)c1)[C@H](O)C2` (relative stereo) [trans-3,3′,4′,5,7-Pentahydroxyflavane], the “% deglycation” value was 100%.
Turning to `Oc1cc(O)cc(O)c1` [1,3,5-Trihydroxybenzene (phloroglucinol), 1,3,5-Trihydroxybenzene], the “% deglycation” value is recorded as 100%.
As for `O=c1cc(CO)occ1O` [2-Hydroxymethyl-5-hydroxy-γ-pyrone], the figure is 97%.
The same measure for `O=C(O)C=Cc1ccc(O)c(O)c1` [3,4-Dihydroxycinnamic acid]: 88%; for `O=C(O)Cc1ccc(O)c(O)c1` [3,4-Dihydroxyphenylacetic acid (DOPAC), 3,4-Dihydroxyphenylacetic acid]: 100%.
As for `COc1cc(C=CC(=O)O)cc(OC)c1O` [3,5-Dimethoxy-4-hydroxycinnamic acid], the figure is 100%.
As to `Nc1ccc(O)cc1` [4-Aminophenol], the “% deglycation” value came to 100%.
In the case of `Cc1c(C)c2c(c(C)c1O)CCC(C)(C(=O)O)O2` (centres unmarked) [6-Hydroxy-2,5,7,8-tetramethylchromane-2-carboxylic acid], the “% deglycation” value was 100%.
Consider `Cc1cn2c(=O)c3ccccc3nc2n2c(=O)c3ccccc3nc12` [6-Methyl-5,7a,13,13b-tetraazapentaphene-8,14-dione], for which the “% deglycation” value is 100%.
The same measure for `Cc1cc(C)c2c(c1O)C(=O)OC2` [7-Hydroxy-4,6-dimethyl phthalide]: 100%; for `Oc1ccc2cc[nH]c2c1` [Indole alcohol amine II, 6-Hydroxyindole]: 100%.
The same measure for `CC(Cc1ccc(O)c(O)c1)C(C)Cc1ccc(O)c(O)c1` (centres unmarked) [Nordihydroguaiaretic acid]: 100%; for `O=C1Cc2ccccc2N1` [Oxindole]: 100%.
As for `CNC(=O)Oc1ccc2c(c1)[C@]1(C)CCN(C)[C@@H]1N2C` [Physostigmine], the figure is 87%.
